The values that follow come from US20120283327A1, “PHARMACEUTICAL COMPOSITIONS AND THERAPEUTIC APPLICATIONS OF A HYDROCORTISONE DERIVATIVE DESIGNATED AS DEINA” (priority 2009, published 2012).

The test system of data set [1] is bioptic animal samples (skin, chondrocyte, mucosal and follicular vitality). As to the kind of experiment: Optical microscopy of cultured biopsies: cytokeratin 10 and 11 expression and haematoxylin/eosin histology. The data set is classed as cell-based. The protocol: The bioptic animal samples in the investigation comprised biopsies of: • chronic atrophic cutaneous lesions due to venous stasis (base and margins), • damaged joint cartilage (chronic degenerative osteo-articular arthritis), • terminal cicatricial scalp (post-traumatic or surgical lesions), • hyperkeratosis of the oral cavity (vitamin B deficiency).
All the samples were washed three times with physiological saline and antibiotics (100 units/ml of penicillin+100 μg/ml of streptomycin+160 mg/L gentamycin, fluconazole 0.2 mg/ml) for 10 minutes at ambient temperature.
The biopsies were then sectioned into three parts (two controls, 1 and 2, and one sample, 3, to be treated for each patient) and suspended in a final volume of 25 ml of the corresponding culture solutions within 10 cm slides (Lab-Tek chamber slides, Nunc, Kamstrup, Denmark).
Two types of controls were prepared, an untreated negative control (1), that is one treated with physiological saline and antibiotics only (as described above), and a positive control (2) treated with media for ordinary cell culture for skin biopsies.
2. Positive control: Controlled bioptic specimens 2 were placed between 10 cm slides (Lab-Tek chamber slides, Nunc, Kamstrup, Denmark) in D-MEM medium supplemented with:
3. Samples-1 and -2. Bioptic samples 1 and 2 were placed between 10 cm slides (Lab-Tek chamber slides, Nunc, Kamstrup, Denmark) in medium in a solution of Deina® culture medium (double test). […]
Results relating to the expression of cytokeratin 10 and 11 and histological staining of the bioptic preparations with haematoxylin/eosin (used to display skin, chondrocyte, mucosal and follicular vitality) are shown in Table 6 (CONTROLS) and Table 7 (SAMPLES), and have been expressed using a qualitative and semi-quantitative scale. […]
Samples belonging to the type of the Sample treatment group (Deina®). Median semi-quantitative values for incubation days 7 and 60.

In another data set the test system is bilateral joint changes. The data set is classed as in vivo. Here is the method: A clinical trial to evaluate tolerance and efficacy for the compound known as infusional Deina® (composition shown in Table 3) was also performed on a compassionate basis.
Twenty cases (dogs of different breed, size, body weight, sex and age).
The quantity of solution inoculated was equal to the quantity of synovial fluid aspirated and analysed.
a. Time Zero • Collection of case history and clinical examination comprising full blood counts, including LACTATES to check metabolic oxidation, • Radiography of the limb in question, • ROM (Range Of Motion), • Exploratory arthroscopy, • Exclusion of any intra-articular curettage, • Arthrocentesis with removal and morphological/cytological and biochemical examination of the synovial fluid, • Histological examination of a sample of joint cartilage, • Intra-articular inoculation of the solutions tested equal to the quantity of synovial fluid withdrawn and always in the same way (bilateral lesions): of Deina®.
A synovial examination and intra-articular injection of the solution was repeated weekly or for four/eight times, depending on the severity of the initial pathological condition.
b. End of the Treatment Cycle • Arthrocentesis with removal and morphological/cytological and biochemical examination of the synovial fluid, • Histological examination of a sample of joint cartilage, • Radiography of the joint in question, • ROM (Range Of Motion), • Blood lactic acid content, • Clinical examination and recording.

The mark [2] stands for this setting: Deina infusional formulation, intra-articular, weekly four/eight times, 20 dogs.

Each structure is given as a SMILES string.

As for `CC1(CCC(=O)O)C(=O)CCC2C1C(O)CC1(C)C2CCC1(O)C(=O)CO` (stereo not drawn) [Deina®, 3-[3,5-Dihydroxy-3-(2-hydroxy-acetyl)-3a,6-dimethyl-7-oxo-dodecahydro-cyclo-penta[alpha]naphthalen-6-yl]-propionic acid], the “cytokeratin 10 and 11 (typical of normal tegument and scalp tissues with vital follicles)” value in data set [1] (optical microscopy, Table 7 summary) is on record as “net predominance”. In addition, the “number of cells (staining with eosin and haematoxylin)” value in data set [1] (samples treated for two months, versus controls) is “net increase”. For the same compound, the “histological state of the cultured tissue” value in data set [1] (short term (7 days) up to two months of culture) is “trophic, vital and active”. Further, in the data set with bilateral joint changes (setting [2]), the “cases in which pain and palpation fell” value was determined as 100%; the “cases with clinical improvement” value is 70%; the “cases with increased ROM (Range of Motion)” value came to 90%. The tolerance entry in the data set with bilateral joint changes (dog, in vivo) is “optimum tolerance”.
